Test results published in paper PMC3945760, “Antioxidant action and cytotoxicity on HeLa and NIH-3T3 cells of new quercetin derivatives” (Interdisciplinary Toxicology, 2013).
Where two headings read alike, the source gives them in different places.

Legend:
[1] = Scavenging of DPPH radical; settings: 10 min, room temperature, methanol, read-out: IC50 ± SD DPPH
Protocol: We used the simple spectrophotometric method according to Yen and Chen ([1995]) to determine the ability to scavenge free radicals. Binding of DPPH? radical by compounds causes its decolorization. The compounds tested were diluted in methanol to the final concentration 200 µM to 12.5 µM. Trolox served as standard antioxidant control. Reactions of samples with DPPH? solution were performed in 96-well plates and lasted for 10 min at room temperature in the dark. After that, the absorbance changes were measured spectrophotometrically at 520 nm (Multiskan FC, Thermo Scientific, DE). Each value is the mean of 5 wells with standard deviation. Inhibitory concentrations (IC50) were expressed as the concentration of the derivative tested to react with one half of the DPPH? and were calculated by SigmaPlot.

[2] = tested on: human cervical cancer cells HeLa; test: MTT assay on HeLa cells; type: cell-based; settings: for IC50: MTT, 72 h drug exposure, read-out: IC50 ± SD HeLa cells
Protocol: (§1) The human tumor cell line HeLa and murine fibroblast NIH-3T3 cells were obtained from the ATCC (Rockville, MD, USA). The cells grown at 37 °C in humidified 5%-CO2 and 95%-air atmosphere were in Dulbecco's modified eagle medium supplemented with 10% (vol/vol) inactivated bovine serum, penicillin G and streptomycin (100 mg/l). Before a uniform monolayer of cells was formed, cells were freed from the surface of the culture flask by a 0.25% solution of trypsin and were subcultivated two to three times a week. The cells were plated on the cultivation flask (surface 25 cm^2) at a density of 4×10^4 HeLa cells and 6×10^4 NIH-3T3 cells per ml medium and incubated for 24 h prior to the experiments.
(§2) The cytotoxic effect of the compounds prepared on cells was detected in vitro using the mitochondrial cytotoxic test according to Jantová et al. ([2010]) with modifications. Cell viability was evaluated using thiazolyl blue tetrazolium bromide (MTT), which indicates the metabolic activity of cells. The experiment was performed in 96-well microplates. The cells were seeded at a density of 3.5×10^3 HeLa or NIH-3T3 cells per well. Samples were dissolved in DMSO (stock solution 10 mM) and subsequently diluted in medium to the final concentration of 5 µM to 100 µM (concentration of DMSO 0.5%) and after 24 h they were added to the cells. Microplates were cultivated for 72 h in thermostat at 37 °C and 5% CO2 atmosphere. After incubation thiazolyl blue tetrazolium bromide (3.33 mg/ml phosphate buffered saline, pH=7.4) was pipetted to each well and left to incubate for further two hours. Then the medium with MTT solution was removed. Formazan crystals in viable cells were dissolved in the lysis solution (4 mM HCl and 0.1% Nonidet P40 in ethanol). Microplates were shaken 15 min at 1500 rpm. Absorbance was measured at 540 nm and reference wavelength at 740 nm (Multiskan FC, Thermo Scientific, DE). Each value is the mean of 6 wells with standard deviation. Inhibition activity was expressed as percentages of control with DMSO. For each compound IC50 values were calculated by SigmaPlot.

[3] = Ferric reducing antioxidant power (FRAP); settings: 10 min, 37 °C, read-out: IC50 ± SD FRAP
Protocol: The antioxidant reducing power of the derivatives tested was performed using the FRAP method according to Benzie and Strain ([1996]). Ferric to ferrous ion reduction at low pH causes the formation of a colored ferrous-tripyridyltriazine complex. Samples diluted in methanol (200 µM to 12.5 µM) and FRAP reagent reacted for 10 min at 37 °C in 96-well microplates. At the end, absorbance changes were measured spectrophotometrically at 593 nm (Multiskan FC, Thermo Scientific, DE). Each value is the mean of 5 wells with standard deviation. Inhibitory concentrations (IC50) were expressed as the concentration of the derivative tested reducing one half of ferric complexes and were calculated by SigmaPlot.

[4] = tested on: non-cancer murine fibroblast cells NIH-3T3; test: MTT assay on NIH-3T3 cells; type: cell-based; settings: for IC50: MTT, 72 h drug exposure, read-out: IC50 ± SD NIH-3T3 cells
Protocol: as §1, §2

NIH-3T3 cells = test: Light microscopy of NIH-3T3 cells; type: cell-based, murine; settings: NIH-3T3, 25 µM and 50 µM, 72 h
Protocol: (§3) The cytotoxic action of the effective chloronaphtoquinone quercetin 5 was further observed also by light microscopy after 72 h of HeLa and NIH-3T3 cells cultivation. […] On the other hand, a significant decrease in cell number was found in cells treated with both concentrations studied (25 µM and 50 µM).
(§4) We monitored prepared quercetin derivatives for their cytotoxic action on human cervical cancer cells HeLa in the concentration range from 5 µM to 100 µM. For comparison non-cancer murine fibroblast cells NIH-3T3 were also evaluated. The MTT test and light microscopy were used for cytotoxicity measurements.

HeLa cells = test: Light microscopy of HeLa cells; type: cell-based, human; settings: 25 µM and 50 µM, 72 h
Protocol: as §3, §4

Row | Structure (SMILES) | IC50 [1] | IC50 [2] | IC50 [3] | IC50 ([4]; Mus musculus, NIH3T3, 72 h) | inhibition at 25 µM ([2]; 25 µM, 72 h, read-out: Inhibition of cell proliferation) | inhibition at 50 µM ([2]; 50 µM, 72 h, read-out: Inhibition of cell proliferation) | inhibition at 100 µM ([2]; 100 µM, 72 h, read-out: Inhibition of cell proliferation) | inhibition at 25 µM ([4]; Mus musculus, NIH3T3, NIH-3T3, 25 µM, 72 h, read-out: Inhibition of cell proliferation) | inhibition at 50 µM ([4]; Mus musculus, NIH3T3, NIH-3T3, 50 µM, 72 h, read-out: Inhibition of cell proliferation) | inhibition at 100 µM ([4]; Mus musculus, NIH3T3, NIH-3T3, 100 µM, 72 h, read-out: Inhibition of cell proliferation) | morphologic changes (NIH-3T3 cells) | morphologic changes (HeLa cells) | IC50 [4]
1 | CC(=O)OC1CC(OC(C)=O)(C(=O)Oc2cc(O)c3c(=O)c(O)c(-c4ccc(OC(=O)C5(OC(C)=O)CC(OC(C)=O)C(OC(C)=O)C(OC(C)=O)C5)c(O)c4)oc3c2)CC(OC(C)=O)C1OC(C)=O (stereo not shown) [compound 9, di(tetraacetylquinoyl) quercetin] | 63.7 ± 2.6 µM | 19.5 ± 0.8 µM | 112 ± 7.3 µM | 16.1 ± 0.4 µM | – | – | – | – | – | – | – | – | –
2 | CC(=O)Oc1ccccc1C(=O)Oc1ccc(-c2oc3cc(O)cc(OC(=O)c4ccccc4OC(C)=O)c3c(=O)c2OC(=O)c2ccccc2OC(C)=O)cc1OC(=O)c1ccccc1OC(C)=O [compound 12, tetra(acetylsalicyloyl) quercetin] | > 200 µM | > 50 µM | > 200 µM | > 50 µM | – | – | – | – | – | – | – | – | –
3 | CC1CN(CC(O)COc2cc(O)cc3oc(-c4ccc(O)c(O)c4)c(O)c(=O)c23)CC(C)O1 (stereo not shown) [compound 4] | > 200 µM | > 100 µM | > 200 µM | > 100 µM | – | – | – | – | – | – | – | – | –
4 | O=C1C(Cl)=C(Oc2cc(-c3oc4cc(O)cc(O)c4c(=O)c3O)ccc2O)C(=O)c2ccccc21 [compound 5, chloronaphtoquinone quercetin] | 28.4 ± 3 µM | 13.2 ± 1.6 µM | 64.5 ± 0.6 µM | 16.5 ± 0.1 µM | 94.5% | 97.9% | 97.7% | 71.9% | 85.2% | 93.7% | cell rounding and cell separation from the cultivation surface | cell rounding and cell separation from the cultivation surface | –
5 | CC(C)(CCl)C(=O)Oc1cc(-c2oc3cc(O)cc(O)c3c(=O)c2O)ccc1O [compound 2] | 27 ± 0.2 µM | 43.4 ± 2.8 µM | 12.5 ± 0.3 µM | 26.8 ± 0.5 µM | – | – | – | – | – | – | – | – | –
6 | CC(=O)Oc1cc(OC(C)=O)c2c(=O)c(OC(C)=O)c(-c3ccc(OC(C)=O)c(OC(C)=O)c3)oc2c1 [compound 6, pentaacetyl quercetin] | > 200 µM | 29.6 ± 1.9 µM | > 200 µM | 15.5 ± 0.7 µM | – | – | – | – | – | – | – | – | –
7 | O=C1c2c(O)cc(O)cc2OC2(c3ccc(O)c(O)c3)Oc3ccc(-c4oc5cc(O)cc(O)c5c(=O)c4O)cc3OC12O (stereo not shown) [compound 1, diquercetin] | 58.8 ± 6.2 µM | 64 ± 7.5 µM | 103 ± 6.2 µM | 32.9 ± 1.1 µM | – | – | – | – | – | – | – | – | –
8 | CC(C)(CCl)C(=O)Oc1cc(OC(=O)C(C)(C)CCl)c2c(=O)c(O)c(-c3ccc(O)c(OC(=O)C(C)(C)CCl)c3)oc2c1 [compound 3] | > 200 µM | 65 ± 4.5 µM | > 200 µM | 20.3 ± 1.9 µM | – | – | – | – | – | – | – | – | –
9 | Cc1c(C)c2c(c(C)c1O)CCC(C)(C(=O)O)O2 (stereo not shown) [T, trolox, reference compound] | 34.7 ± 1 µM | 34.7 ± 1 µM | 39.5 ± 2.1 µM | 39.5 ± 2.1 µM | – | – | – | – | – | – | – | – | –
10 | CC(C)=CCOc1ccc(/C=C/C(=O)Oc2cc(O)c3c(=O)c(O)c(-c4ccc(OC(=O)/C=C/c5ccc(OCC=C(C)C)c(OCC=C(C)C)c5)c(O)c4)oc3c2)cc1OCC=C(C)C [compound 8] | 161 ± 13.2 µM | > 50 µM | > 200 µM | > 100 µM | – | – | – | – | – | – | – | – | > 50 µM
11 | CC(=O)Oc1ccc(/C=C/C(=O)Oc2ccc(-c3oc4cc(O)c(O)cc4c(=O)c3OC(=O)/C=C/c3ccc(OC(C)=O)c(OC(C)=O)c3)cc2OC(=O)/C=C/c2ccc(OC(C)=O)c(OC(C)=O)c2)cc1OC(C)=O [compound 11] | 35.4 ± 2.7 µM | 16.5 ± 1.5 µM | > 200 µM | 10.6 ± 0.1 µM | – | – | – | – | – | – | – | – | –
12 | O=c1c(O)c(-c2ccc(O)c(O)c2)oc2cc(O)cc(O)c12 [Q, quercetin] | 16.2 ± 1.1 µM | 35.5 ± 1.1 µM | 12.5 ± 0.9 µM | 20.9 ± 0.9 µM | – | – | – | – | – | – | – | – | –
13 | COc1ccc(/C=C/C(=O)Oc2ccc(-c3oc4cc(O)cc(O)c4c(=O)c3O)cc2OC(=O)/C=C/c2ccc(OC)c(OCC=C(C)C)c2)cc1OCC=C(C)C [compound 14] | 82.8 ± 3.3 µM | > 50 µM | 183 ± 13.5 µM | > 50 µM | – | – | – | – | – | – | – | – | –
14 | CC(C)=CCOc1ccc(/C=C/C(=O)Oc2cc(O)c3c(=O)c(O)c(-c4ccc(OC(=O)/C=C/c5ccc(OCC=C(C)C)c(OCC=C(C)C)c5)c(OC(=O)/C=C/c5ccc(OCC=C(C)C)c(OCC=C(C)C)c5)c4)oc3c2)cc1OCC=C(C)C [compound 7] | > 200 µM | > 50 µM | > 200 µM | > 100 µM | – | – | – | – | – | – | – | – | > 50 µM
15 | COc1ccc(/C=C/C(=O)Oc2cc(-c3oc4cc(O)cc(O)c4c(=O)c3O)ccc2O)cc1OC(C)=O [compound 15] | > 200 µM | > 50 µM | > 200 µM | > 50 µM | – | – | – | – | – | – | – | – | –
